Values quoted from earlier work in PMC4258163 (Bioorganic & medicinal chemistry letters, 2014).

What was measured:
[1] = systemic administration, mice
animal model of anxiety = conditions: versus selective FAAH or TRPV1 inhibitors

Row | SMILES | Hyperthermia [1] | Effectiveness in an animal model of anxiety (animal model of anxiety) | excess of anandamide in the blood of patients (osteoarthritis pain; patients treated with the inhibitor) | Efficacy in treating osteoarthritis pain (osteoarthritis pain; phase II clinical trial, compared with naproxen)
1 | CCCCC/C=C\C/C=C\C/C=C\C/C=C\CCCC(=O)NCCc1c[nH]c2ccc(O)cc12 [AA-5-HT, N-arachidonoyl serotonin] | did not cause hyperthermia | more effective | – | –
2 | O=C(Nc1cccnn1)N1CCC(=Cc2cccc(Oc3ccc(C(F)(F)F)cn3)c2)CC1 [PF-04457845] | – | – | greater than 10 fold | lack of efficacy
